Test results from the CheMixHub viscosity set.
± gives the uncertainty stated by the source.

Assay: xn = mol fraction of the nth substance listed

Cc1cccc(N)c1 + C1CCCCC1
303.15 K, 101.33 kPa
Conditions	viscosity [mPa·s]
x1 = 0.2	0.95 ± 0.021
x1 = 0.398	1.13 ± 0.021
x1 = 0.559	1.35 ± 0.022
x1 = 0.786	1.88 ± 0.025

C1CCC(C2CCCCC2)CC1 + C1CC[C@H]2CCCC[C@@H]2C1
viscosity [mPa·s], 102 kPa
Conditions	x2 = 0.1185	x2 = 0.2312	x2 = 0.3405	x2 = 0.4451	x2 = 0.546	x2 = 0.6433	x2 = 0.7374	x2 = 0.828	x2 = 0.9154
293.15 K	3.72 ± 0.03	3.43 ± 0.03	3.17 ± 0.03	2.96 ± 0.03	2.77 ± 0.02	2.6 ± 0.02	2.45 ± 0.02	2.33 ± 0.02	2.21 ± 0.02
303.15 K	2.95 ± 0.03	2.74 ± 0.02	2.56 ± 0.02	2.4 ± 0.02	2.27 ± 0.02	2.15 ± 0.02	2.03 ± 0.02	1.94 ± 0.02	1.85 ± 0.02
313.15 K	2.39 ± 0.02	2.24 ± 0.02	2.11 ± 0.02	1.99 ± 0.02	1.89 ± 0.02	1.8 ± 0.02	1.71 ± 0.02	1.64 ± 0.02	1.57 ± 0.02
323.15 K	1.98 ± 0.02	1.87 ± 0.02	1.77 ± 0.02	1.68 ± 0.02	1.6 ± 0.02	1.52 ± 0.02	1.46 ± 0.02	1.4 ± 0.02	1.34 ± 0.02

Cc1cccc(N)c1 + CC1CCCCC1
303.15 K, 101.33 kPa
Conditions	viscosity [mPa·s]
x1 = 0.204	0.79 ± 0.018
x1 = 0.4	0.96 ± 0.018
x1 = 0.6	1.25 ± 0.02
x1 = 0.8	1.75 ± 0.023

CCCCOCCOCCOCCCC + CC1COC(=O)O1
viscosity [mPa·s], 101.3 kPa
Conditions	298.15 K	308.15 K	318.15 K
x1 = 0.007	2.562 ± 0.032	2.064 ± 0.026	1.704 ± 0.022
x1 = 0.0158	2.574 ± 0.032	2.086 ± 0.026	1.721 ± 0.022
x1 = 0.059	2.676 ± 0.033	2.174 ± 0.027	1.735 ± 0.022
x1 = 0.1317	2.748 ± 0.035	2.244 ± 0.029	1.768 ± 0.023
x1 = 0.2166	2.735 ± 0.035	2.263 ± 0.029	1.773 ± 0.023
x1 = 0.3183	2.7 ± 0.035	2.187 ± 0.029	1.729 ± 0.023
x1 = 0.356	2.674 ± 0.035	2.161 ± 0.029	1.712 ± 0.023
x1 = 0.3871	2.649 ± 0.035	2.141 ± 0.029	1.695 ± 0.023
x1 = 0.4126	2.635 ± 0.035	2.129 ± 0.029	1.686 ± 0.023
x1 = 0.4929	2.579 ± 0.035	2.086 ± 0.029	1.649 ± 0.023
x1 = 0.5658	2.534 ± 0.035	2.051 ± 0.028	1.623 ± 0.023
x1 = 0.5869	2.526 ± 0.035	2.045 ± 0.029	1.62 ± 0.023
x1 = 0.6616	2.487 ± 0.035	2.013 ± 0.029	1.595 ± 0.023
x1 = 0.7058	2.475 ± 0.035	1.999 ± 0.029	1.584 ± 0.023
x1 = 0.748	2.469 ± 0.035	1.992 ± 0.029	1.566 ± 0.023
x1 = 0.8266	2.402 ± 0.035	1.954 ± 0.029	1.537 ± 0.023
x1 = 0.9183	2.323 ± 0.035	1.899 ± 0.029	1.489 ± 0.023

CN1CCCN2CCCN=C12 + CC(=O)O
100 kPa, x1 = 0.1125
Conditions	viscosity [mPa·s]
294.45 K	12.9 ± 1.6
298.17 K	11.3 ± 1.4
308.1 K	8.1 ± 1
323.06 K	5.4 ± 0.7

CCCCCCCCCCCC(=O)O + CC(C)[C@@H]1CC[C@@H](C)C[C@H]1O
viscosity [mPa·s]
Conditions	293.15 K	298.15 K	303.15 K	308.15 K	313.15 K	318.15 K	323.15 K
100 kPa, x1 = 0.25	–	28.1 ± 0.26	20.91 ± 0.19	15.93 ± 0.15	12.4 ± 0.11	9.84 ± 0.09	7.94 ± 0.07
100 kPa, x2 = 0.33	33.06 ± 0.56	24.42 ± 0.41	18.63 ± 0.32	14.51 ± 0.24	11.45 ± 0.19	9.293 ± 0.16	7.61 ± 0.13
101 kPa, x1 = 0.333	21.81 ± 0.85	–	12.5 ± 0.5	–	7.657 ± 0.3	–	5.112 ± 0.2
